In patent US11591313B2, “Inhibitors of ectonucleotide pyrophosphatase/phosphodiesterase 1 (ENPP1) and methods of use thereof” (Stingray Therapeutics, Inc., priority 2020, dated 2023):
Where a name gives a salt, the structure may show the parent alone. Read-outs that look alike come from different tables or passages of the source.

Key:
[1] = biological target: T1, Recombinant Human ENPP-1 Protein (Homo sapiens (Human), UniProt P22413); test: ENPP1 Assay (TMP); format: biochemical
Procedure: Assay Buffer: 1 mM CaCl2, 0.2 mM ZnCl2, 50 mM Tris, pH 9.0
Enzyme: 1 ng/μL Recombinant Human ENPP-1 Protein (purified in-house)—Assay Cone.: 5 ng/well
A ten point serial dilution of drugs was prepared in 10× in assay buffer with the final assay concentrations starting at 10 μM, 3 μM, 1 μM, 0.3 μM . . . 0 μM. A dilution of DMSO was included as a control. The assay plate was set up as follows with each well in duplicate: 75 μL assay buffer+10 μL ENPP1 inhibitor or DMSO Dilutions+10 μL Substrate+5 μL Enzyme (5 ng). Both the enzyme and substrate were added to opposite sides of the well to ensure that there was no interaction until all wells had both components. The plate was then centrifuged gently for 10 seconds, followed by an incubation at 37° C. for 45 minutes. […] Data was analyzed using GraphPad Prism 8.0.

[2] = biological target: Recombinant Human ENPP-2/Autotaxin (rhENPP-2) (Homo sapiens (Human), UniProt Q13822); test: ENPP2 Assay; format: biochemical; settings: substrate BPNPP, pH 8.5, 37° C. 10 minutes, absorbance at 400 nm
Procedure: Assay Buffer: 50 mM Tris, 10 mM CaCl2, 5 mM MgCl2, 0.02% Brij-35 (v/v), pH 8.5
Substrate: 20 mM Bis(p-Nitrophenyl) Phosphate Sodium Salt (BPNPP) (Sigma, Catalog #N3002)
Enzyme: 0.01 ng/μL Recombinant Human ENPP-2/Autotaxin (rhENPP-2) (R&D Catalog #5255-EN)
96-well clear assay plates
0 μM. […] PF8380 was used as a positive control for the assay. Data was analyzed using GraphPad Prism 8.0.

[3] = biological target: T1, Recombinant Human ENPP-1 Protein; format: binding; settings: SYPRO Orange protein melt
Procedure: Recombinant Human ENPP-1 Protein (Purified In-House)
Assay Buffer (1 mM CaCl2, 0.2 mM ZnCl2, 50 mM Tris, pH 9.0)
5000×SYPRO Orange (ThermoFisher cat #S6651)
Each drug was prepared as a 1 Ox solution in the assay buffer and SYPRO Orange was diluted to 10× concentration in water. Wells were set up in duplicate in a 384-well PCR plate as follows: 14 μL assay buffer, 2 μL ENPP1 Inhibitor or DMSO, 2 μL (0.5 μg) ENPP1 protein. Each well was mixed and incubated on ice for 5 minutes. Post incubation, 2 μL of SYPRO Orange was mixed into each well and followed by a gentle centrifugation. The protein melt reaction was run using ViiA7 software with temperatures beginning at 25° C. and increasing by 0.05° C./s to the maximum temperature of 99° C.

T1 sequence (P22413 whole entry, looked up): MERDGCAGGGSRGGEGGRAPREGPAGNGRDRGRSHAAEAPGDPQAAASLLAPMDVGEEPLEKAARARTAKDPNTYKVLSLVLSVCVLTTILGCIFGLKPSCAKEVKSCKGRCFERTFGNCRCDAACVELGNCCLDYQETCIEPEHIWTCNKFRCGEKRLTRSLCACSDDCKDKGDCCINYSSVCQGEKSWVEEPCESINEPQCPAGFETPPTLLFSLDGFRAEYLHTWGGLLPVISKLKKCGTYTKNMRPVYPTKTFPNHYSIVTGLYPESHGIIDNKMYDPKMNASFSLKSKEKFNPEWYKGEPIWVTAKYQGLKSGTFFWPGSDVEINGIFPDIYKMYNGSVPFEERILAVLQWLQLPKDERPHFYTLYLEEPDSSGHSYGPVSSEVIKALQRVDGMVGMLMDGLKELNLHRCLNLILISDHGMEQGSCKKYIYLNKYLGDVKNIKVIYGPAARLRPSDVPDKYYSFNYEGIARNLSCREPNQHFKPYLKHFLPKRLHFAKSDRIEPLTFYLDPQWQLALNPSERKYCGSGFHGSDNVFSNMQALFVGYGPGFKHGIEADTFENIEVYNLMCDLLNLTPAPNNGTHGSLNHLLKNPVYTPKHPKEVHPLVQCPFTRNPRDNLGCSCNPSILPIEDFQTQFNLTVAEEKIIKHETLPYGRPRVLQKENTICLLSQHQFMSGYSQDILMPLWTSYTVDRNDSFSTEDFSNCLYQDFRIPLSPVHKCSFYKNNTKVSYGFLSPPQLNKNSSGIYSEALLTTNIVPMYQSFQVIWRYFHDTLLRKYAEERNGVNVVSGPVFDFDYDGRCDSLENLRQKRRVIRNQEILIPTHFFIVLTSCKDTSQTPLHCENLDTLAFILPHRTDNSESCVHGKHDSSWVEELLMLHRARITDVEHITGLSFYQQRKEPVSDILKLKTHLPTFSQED

## COc1ccc2ncnc(N3CCCN(S(N)(=O)=O)CC3)c2c1 [Compound 022, 4-(6-methoxyquinazolin-4-yl)-1,4-diazepane-1-sulfonamide]
[1]; read-out: IC50
  IC50: 116 nM

## COc1cc2ncc(C#N)c(N3CCCC(NS(N)(=O)=O)CC3)c2cc1OC (stereo not shown) [Compound 042, N-(1-(3-cyano-6,7-dimethoxyquinolin-4-yl)azepan-4-yl)sulfamoylamine]
[1]; read-out: IC50
  IC50: 40.5 nM

## COc1cc2ncc(C#N)c(N3CCCC(CCNS(N)(=O)=O)CC3)c2cc1OC (racemic) [Compound 038]
[1]
  IC50: 0.94 nM

## COc1cc2ncnc(N3CCCN(S(N)(=O)=O)CC3)c2cc1OC [Compound 015-MES, 4-(6,7-dimethoxyquinazolin-4-yl)-1,4-diazepane-1-sulfonamide methanesulfonate]
[1]; methanesulfonate, read-out: IC50
  IC50: 6.38 nM

## COc1cc2ncnc(N3CCN(S(N)(=O)=O)CC(F)(F)C3)c2cc1OC [Compound 029, 4-(6,7-dimethoxyquinazolin-4-yl)-6,6-difluoro-1,4-diazepane-1-sulfonamide hydrochloride]
[1]; read-out: IC50
  IC50: 1.21 nM

## COc1cc2ncnc(-c3ccc(NCCNS(N)(=O)=O)nc3)c2cc1OC.Cl [Compound 048]
[2]
  IC50: > 1000 nM
[3]
  Thermal Shift @10 uM (dTm (o C.)): $$ ($$ <3o C.)

## COc1cc2ncnc(N3CCCC(CCNS(N)(=O)=O)CC3)c2cc1OC (stereo not shown) [Compound 060, N-(2-(1-(6,7-dimethoxyquinazolin-4-yl)azepan-4-yl)ethyl)sulfamide]
[3]
  Thermal Shift @10 uM (dTm (o C.)): $$$ ($$$ >3o C.)

## COc1cc2ncnc(NCCCCCNS(N)(=O)=O)c2cc1OC [Compound 057]
[3]
  Thermal Shift @10 uM (dTm (o C.)): $$ ($$ <3o C.)

## COc1cc2ncnc(N3CCCN(CCNS(N)(=O)=O)CC3)c2cc1OC.Cl [Compound 063, (N-(2-(4-(6,7-dimethoxyquinazolin-4-yl)-1,4-diazepan-1-yl)ethyl)sulfamide hydrochloride]
[1]; read-out: IC50
  IC50: 68.1 nM

## COc1cc2ncnc(N3CCCN(S(N)(=O)=O)CC3)c2cc1OC.Cl [Compound 015-HCl, 4-(6,7-dimethoxyquinazolin-4-yl)-1,4-diazepane-1-sulfonamide hydrochloride salt]
[2]
  IC50: > 1000 nM
[3]
  Thermal Shift @10 uM (dTm (o C.)): $$$ ($$$ >3o C.)
[1]; hydrochloride salt, read-out: IC50
  IC50: 5.97 nM

## COc1cc2ncnc(SCCCCNS(N)(=O)=O)c2cc1OC [Compound 058, N-(4-((6,7-dimethoxyquinazolin-4-yl)thio)butyl) sulfamide hydrochloride]
[3]
  Thermal Shift @10 uM (dTm (o C.)): $$$ ($$$ >3o C.)

## COc1cc2ncnc(N3CCCN(CCNS(N)(=O)=O)CC3)c2cc1OC [Compound 062]
[2]
  IC50: > 1000 nM
[3]
  Thermal Shift @10 uM (dTm (o C.)): $$ ($$ <3o C.)

## COc1cc2ncnc(NCCCCNS(N)(=O)=O)c2cc1OC [Compound 056]
[2]
  IC50: > 1000 nM
[3]
  Thermal Shift @10 uM (dTm (o C.)): $$ ($$ <3o C.)

## COc1cc2ncnc(-c3ccc(CNS(N)(=O)=O)nc3)c2cc1OC [Compound 047, N-((5-(6,7-dimethoxyquinazolin-4-yl)pyridin-2-yl)methyl) sulfamide]
[2]
  IC50: > 1000 nM
[3]
  Thermal Shift @10 uM (dTm (o C.)): $$ ($$ <3o C.)

## COc1cc2ncnc(N3CCCN(C(=O)CNS(N)(=O)=O)CC3)c2cc1OC.Cl [Compound 064]
[3]
  Thermal Shift @10 uM (dTm (o C.)): $$ ($$ <3o C.)

## COc1cc2ncnc(N3CC4CC(C3)N(S(N)(=O)=O)C4)c2cc1OC (stereo not shown) [Compound 026, 3-(6,7-dimethoxyquinazolin-4-yl)-3,6-diazabicyclo[3.2.1]octane-6-sulfonamide hydrochloride]
[1]; read-out: IC50
  IC50: 118 nM

## COc1cc2ncnc(NCCCNS(N)(=O)=O)c2cc1OC [Compound 055, N-(3-((6,7-dimethoxyquinazolin-4-yl)amino)propyl) sulfamide hydrochloride]
[3]
  Thermal Shift @10 uM (dTm (o C.)): $$ ($$ <3o C.)

## COc1cc2ncnc(N3CCCN(C(=O)CNS(N)(=O)=O)CC3)c2cc1OC.Cl [Compound 064, (N-(2-(4-(6,7-dimethoxyquinazolin-4-yl)-1,4-diazepan-1-yl)-2-oxoethyl)sulfamide hydrochloride]
[1]
  IC50: 72 nM

## COc1cc2ncnc(CCCCCNS(N)(=O)=O)c2cc1OC [Compound 050]
[2]
  IC50: > 1000 nM
[3]
  Thermal Shift @10 uM (dTm (o C.)): $$ ($$ <3o C.)

## COc1cc2ncnc(N3CCCN(S(N)(=O)=O)CC3)c2cc1OC [Compound 015, 4-(6,7-dimethoxyquinazolin-4-yl)-1,4-diazepane-1-sulfonamide]
[1]; read-out: IC50
  IC50: 32.4 nM

## COc1cc2ncnc(N3CCCN(C(=O)CNS(N)(=O)=O)CC3)c2cc1OC [Compound 065]
[2]
  IC50: > 1000 nM
[3]
  Thermal Shift @10 uM (dTm (o C.)): $$$ ($$$ >3o C.)
[1]; read-out: IC50
  IC50: 7.74 nM

## COc1cc2ncnc(N3CCCC(CCNS(N)(=O)=O)CC3)c2cc1OC (stereo not shown) [Compound 049]
[2]
  IC50: > 1000 nM
[3]
  Thermal Shift @10 uM (dTm (o C.)): $$$ ($$$ >3o C.)

## COc1cc2c(N3CCCN(S(N)(=O)=O)CC3)ncnc2cc1-c1cn[nH]c1 [Compound 020, 4-(6-methoxy-7-(1H-pyrazol-4-yl)quinazolin-4-yl)-1,4-diazepane-1-sulfonamide]
[1]; read-out: IC50
  IC50: 99.7 nM

## COc1cc2ncnc(N(C)CCCCCNS(N)(=O)=O)c2cc1OC [Compound 061, N-(5-((6,7-dimethoxyquinazolin-4-yl) (methyl)amino)pentyl) sulfamide]
[3]
  Thermal Shift @10 uM (dTm (o C.)): $$ ($$ <3o C.)

## COc1cc2ncnc(N3CCCN(CCNS(N)(=O)=O)CC3)c2cc1OC.Cl [Compound 063]
[3]
  Thermal Shift @10 uM (dTm (o C.)): $$ ($$ <3o C.)

## COc1cc2ncnc(OCCCCNS(N)(=O)=O)c2cc1OC [Compound 053]
[3]
  Thermal Shift @10 uM (dTm (o C.)): $$$ ($$$ >3o C.)

## COc1cc2ncnc(OCCCCCNS(N)(=O)=O)c2cc1OC [Compound 054]
[3]
  Thermal Shift @10 uM (dTm (o C.)): $$ ($$ <3o C.)
